Here are results for seven compounds from US8017168B2, “High-potency sweetener composition with rubisco protein, rubiscolin, rubiscolin derivatives, ace inhibitory peptides, and combinations thereof, and compositions sweetened therewith” (The Coca-Cola Company, priority 2006, dated 2011).

Ends that are not written are not given here.

Series [1] is described as follows: Sensory evaluation of sweetness linger by expert panel, Example Set G (citric acid/potassium citrate lemon-lime base). The series is classed as in vivo. The arrangement: key: 0: no sweetness linger; 1: very slight sweetness linger; 2: slight sweetness linger; 3: moderate sweetness linger; 4: moderately high sweetness linger; 5: high sweetness linger. The following applies: scale 0-5; for sweetness linger rating of control samples: 400 ppm REBA in citric acid/potassium citrate composition, 8 g sugar in 100 ml citrate buffer; for Sweetness Linger rating (defined anchors of the protocol): sucrose, 500 ppm REBA control sample. The procedure:
Sensory evaluation of the samples prepared in Example Set G was carried out under the following protocol, similar to that described hereinabove. In this test protocol, none of the samples were swallowed. All samples were expectorated and the mouth was rinsed with water after the tasting. Immediately upon sensing maximal sweetness, the sample was expectorated, the mouth was rinsed with water and the rate of sweetness decay (“Sweetness Linger”) was measured, where attention was focused on the sweetness 3-4 min after the water rinse. After sample tasting was complete, a salty oyster cracker was chewed followed by a water rinse, and at least 5 minutes followed before tasting the next sample. The sweetness linger was rated by a panel of experts in the sensory evaluation of foods and beverages using the following scale: 0=no sweetness linger, 1=very slight sweetness linger, 2=slight sweetness linger, 3=moderate sweetness linger, 4=moderately high sweetness linger, 5=high sweetness linger.
The “Sweetness Linger” rating for sucrose observed by this protocol is defined as 0. The Sweetness Linger of a 500 ppm of REBA control sample is defined as 5. Experimental samples were tasted by the same protocol, always allowing sufficient time between samples to ensure re-equilibration of the sensory system. Re-tasting of control samples during the course of the experiment was allowed and encouraged.
The comparison taste test was performed between two controls and addition of sweet taste improving additive on the onset and/or sweetness linger.
The effects of formulation change on the sweetness linger of 400 ppm REBA (equivalent to 8 g sucrose) in a citric acid/potassium citrate composition equivalent to that in a diet lemon-lime beverage were evaluated. The sweetness linger rating of this solution was determined to be 5.
8 g of sugar was dissolved in 100 ml of citrate buffer. The sweetness linger rating of this control sample was determined to be 0.

A short description of series [2]: Sensory evaluation of sweetness linger by expert panel, Example Set H (phosphoric acid solution pH 2.4-2.5). To be noted: scale 0-5; 500 ppm REBA or 10 g sugar in 100 ml, carbon-treated water, phosphoric acid pH 2.4-2.5. The class given is in vivo. More on the design: key: 0: no sweetness linger; 1: very slight sweetness linger; 2: slight sweetness linger; 3: moderate sweetness linger; 4: moderately high sweetness linger; 5: high sweetness linger.

Another series deals with mice. The following applies: oral administration, 100 mg per kg; cited from earlier work.
Series [3] in a line: Rate of dissolution of rebaudioside A polymorph and amorphous forms in H2O at 25° C. The series is classed as physicochemical.
The format of series [4] is physicochemical. Here is the method:
A solution of rebaudioside A (>97% pure by HPLC) was prepared in double distilled water (12.5 gm in 50 mL, 25% concentration) by stirring the mixture at 40° C. for 5 minutes. An amorphous form of rebaudioside A was formed by immediately using the clear solution for spray drying with the Lab-Plant spray drier SD-04 instrument (Lab-Plant Ltd., West Yorkshire, U.K.). The solution was fed through the feed pump into the nozzle atomizer which atomized it into a spray of droplets with the help of a constant flow of nitrogen/air. […] This dry powder (11-12 g, H2O 6.74%) was discharged continuously from the drying chamber and was collected in a bottle.

`OC[C@H]1O[C@@](CO)(O[C@H]2O[C@H](CO)[C@@H](O)[C@H](O)[C@H]2O)[C@@H](O)[C@@H]1O` [sucrose]: in series [1], the “sweetness linger rating of control samples” value amounted to 0 and the “Sweetness Linger rating (defined anchors of the protocol)” value is 0. In series [2], the “sweetness linger rating of control samples” value was 0.

With YPLDLF [rubiscolin-6], the memory consolidation entry in the series on mice is “enhanced memory consolidation”.

rebaudioside A: the “sweetness linger rating of control samples” value in series [1] and in series [2] was 5 in each case. Besides, the “Sweetness Linger rating (defined anchors of the protocol)” value in series [1] was determined as 5.

For rebaudioside A [Form 1], the “Rate of dissolution in H2O at 25° C.” value is “(<0.2%/60 %/60 minutes” in series [3] (H2O, 25° C.) and “Very low” in series [3] (grade in words).

As to rebaudioside A [Form 2], the “Rate of dissolution in H2O at 25° C.” value in series [3] (H2O, 25° C.) is on record as “(<30%/5 %/5 minutes”; in series [3] (grade in words) it was “Intermediate”.

With rebaudioside A [Form 3], the “Rate of dissolution in H2O at 25° C.” value is listed as “(>30%/5 %/5 minutes” in series [3] (H2O, 25° C.) and “High” in series [3] (grade in words).

As for rebaudioside A [Form 4], the “solubility in water at room temperature” value in series [4] was more than 35.0%. Also, the “Rate of dissolution in H2O at 25° C.” value is “(>35.0%/5 %/5 minutes” in series [3] (H2O, 25° C.) and “High” in series [3] (grade in words).
